The term IC50 denotes the point on the concentration scale where inhibition reaches its midpoint. A high value points to lower potency.

Drawing on ChEMBL document CHEMBL1141318, “Cytotoxic lignans from the stem bark of Magnolia officinalis” (J Nat Prod, 2007), this text covers IC50 for 12 molecules.

In brackets after ≈: the same amount, converted by molar mass.

What all share (type): functional, cell-based
In assay [1] the test system is HeLa. In words: Cytotoxicity against human HeLa cells by MTT assay. (In general: Tetrazolium dyes change colour on reduction, which living cells bring about.)
The subject of assay [2] is A549. In words: Cytotoxicity against human A549 cells by MTT assay.
For assay [3], the system named is K562. Briefly: Cytotoxicity against human K562 cells by MTT assay.

For `C=CCc1cc(-c2cc(C=O)ccc2O)ccc1OC`, the IC50 in assay [1], in assay [2] and in assay [3] was above 5 mg/L each time.

As to `COc1ccc(-c2cc(/C=C/C=O)ccc2O)cc1/C=C/C=O`, the half-maximal inhibitory concentration (IC50) was determined as 3.9 mg/L (≈ 12.6 µM) in assay [1], 1.5 mg/L (≈ 4.86 µM) in assay [2] and 3.7 mg/L (≈ 12 µM) in assay [3].

On to `C=CCc1cc(-c2cc(/C=C/C=O)ccc2O)ccc1OC` [4'-METHOXYMAGNALEDEHYDE B], for which the IC50 in assay [1], in assay [2] and in assay [3] was above 5 mg/L throughout.

`COc1cccc2c1C(=O)c1c(O)c3c(c(O)c1C2=O)C[C@@](O)(C(=O)CO)C[C@@H]3O[C@H]1C[C@H](N)[C@H](O)[C@H](C)O1` [DOXORUBICIN]: the values for the 50% inhibitory concentration (IC50) in assay [1], in assay [2] and in assay [3] were 0.8 mg/L (≈ 1.47 µM), 1.2 mg/L (≈ 2.21 µM) and 1.41 mg/L (≈ 2.59 µM), respectively.

Take `C=CCc1ccc(O)c(-c2ccc(O)c(CC=C)c2)c1` [HONOKIOL]: the IC50 in assay [1], in assay [2] and in assay [3] was above 5 mg/L each time.

For `C=CCc1cc(-c2cc(/C=C/C=O)ccc2O)ccc1O` [MAGNALEDEHYDE B], the IC50 in assay [1], in assay [2] and in assay [3] was above 5 mg/L throughout.

Turning to `C=CCc1cc(-c2cc(C=O)ccc2O)ccc1O` [MAGNALEDEHYDE E], the IC50 in assay [1], in assay [2] and in assay [3] was above 5 mg/L throughout.

For `C=CCc1cc(-c2cc(CC(O)CO)ccc2O)ccc1O` (stereo unspecified) [MAGNOLIGNAN], the IC50 in assay [1], in assay [2] and in assay [3] was above 5 mg/L in each case.

With `C=CCc1ccc(O)c(-c2cc(CC=C)ccc2O)c1` [MAGNOLOL], the IC50 in assay [1], in assay [2] and in assay [3] was above 5 mg/L throughout.

Regarding `C=CCc1ccc(O)c(-c2ccc(OC)c(CC=C)c2)c1` [METHYLHONOKIOL], the IC50 in assay [1], in assay [2] and in assay [3] was above 5 mg/L throughout.

For `COc1cc(/C=C/C=O)cc(OC)c1O[C@@H]1O[C@H](CO)[C@@H](O)[C@H](O)[C@H]1O` [SINAPALDEHYDE GLUCOSIDE], the IC50 in assay [1], in assay [2] and in assay [3] was above 5 mg/L in each case.

Consider `COc1cc(/C=C/CO)cc(OC)c1O[C@@H]1O[C@H](CO)[C@@H](O)[C@H](O)[C@H]1O` [SYRINGIN], for which the IC50 in assay [1], in assay [2] and in assay [3] was above 5 mg/L each time.
